Values joined by “and” are separate entries in the source; they are usually repeats but may differ in a detail not shown here. Identical values can stand only once. Like-named read-outs stand apart in the source and are kept apart here. Where a SMILES comes first, the peptide text is derived from it.
Columns and labels:
HLA-B08.01 = HLA-B08.01 (Homo sapiens, UniProt P01889, A93T/A95T/D138N/E176V/E187T/K202T/Q94N/R180D/S35A/V36M/Y33D/Y91F); assay: Class I MHC peptide binding affinity (displacement of radiolabeled reference peptide)
Procedure, shortened: (§1)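 Steps: form MHCI complexes carrying labeled reference peptide; add competitor peptides at graded doses; incubate 2 days; separate complex-bound from free label by size-exclusion chromatography and count what remains bound.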

HLA-A02.01 [1] = target: T1, HLA-A02.01 (Homo sapiens, UniProt P04439, D140Y/D185E/D98H/E176V/E277Q/G131W/G231S/I119V/I121R/I166T/I218V/N151K/N90K/P208A/P217A/Q86G/Q94H/R138H/R169H); assay: Class I MHC peptide binding stability (pMHC-I dissociation, 125I-labeled light chain); conditions: allele A02.01
T1 construct: made in house; host or cells: E. coli

HLA-B07.02 [2] = target: T2, HLA-B07.02 (Homo sapiens, UniProt P01889); assay: as above; parameters: made in house; host or cells: E. coli; conditions: Allele B07.02
HLA-A02.01 [3] = target: HLA-A02.01 (Homo sapiens, UniProt P04439, D140Y/D185E/D98H/E176V/E277Q/G131W/G231S/I119V/I121R/I166T/I218V/L300P/L318F/N151K/N90K/P208A/P217A/Q86G/Q94H/R138H/R169H/T345S); assay: Class I MHC peptide binding affinity (displacement of radiolabeled reference peptide); conditions: allele A02.01, (nM))
Procedure, shortened: as §1

HLA-A24.02 [4] = assay: Class I MHC peptide binding stability (pMHC-I dissociation, 125I-labeled light chain); parameters: species or system human; conditions: for Stability (T1/2 (h)): allele A24.02
HLA-A24.02 [5] = assay: Class I MHC peptide binding affinity (displacement of radiolabeled reference peptide); parameters: species or system human
HLA-B07.02 [6] = target: T2, HLA-B07.02; assay: as above; conditions: Allele B07.02; read-out: Observed Affinity (IC50; (nM))
[7] = read-out: Observed Affinity (IC50
[8] = allele A24.02, read-out: Observed Affinity (IC50, (nM))

Row | Structure (SMILES) | Stability (T1/2 (h)) (HLA-A02.01 [1]) [h] | IC50 (HLA-A02.01 [3]; [7]) | Stability (T1/2 (h)) (HLA-A24.02 [4]) [h] | IC50 (HLA-A24.02 [5]; [8]) [nM] | also measured
1 | CC(C)C[C@H](NC(=O)[C@@H]1CCCN1C(=O)[C@H](CO)NC(=O)[C@H](CCCNC(=N)N)NC(=O)[C@H](CC(C)C)NC(=O)[C@H](CCCCN)NC(=O)[C@H](CCCCN)NC(=O)[C@@H](N)CC(C)C)C(=O)O (H-LKKLRSPL-OH; N-terminus and C-terminus assumed) |  |  |  |  | IC50 (HLA-B08.01): 0.6 nM
2 | CSCC[C@H](NC(=O)[C@H](CC(C)C)NC(=O)[C@@H](N)CCCCN)C(=O)N[C@@H](CC(C)C)C(=O)N[C@@H](CC(C)C)C(=O)N[C@@H](CCCNC(=N)N)C(=O)N[C@@H](CC(C)C)C(=O)N[C@@H](CC(N)=O)C(=O)N[C@@H](CC(C)C)C(=O)O | 16.9 | 17 nM and 2.6 nM |  |  | Stability (T1/2 (h)) (HLA-B07.02 [2]): 1.5 h
3 | CC(C)C[C@H](NC(=O)[C@H](CC(C)C)NC(=O)[C@H](CC(C)C)NC(=O)[C@H](CC(=O)O)NC(=O)[C@H](CS)NC(=O)[C@H](CC(C)C)NC(=O)[C@@H]1CCCN1C(=O)[C@@H](NC(=O)[C@@H](N)C(C)C)C(C)C)C(=O)O (H-VVPLCDLLL-OH; N-terminus and C-terminus assumed) |  | 1200 nM | 0.4 | 3890 | 
4 | CC(C)C[C@H](NC(=O)[C@H](C)N)C(=O)N[C@@H](CO)C(=O)N[C@@H](C)C(=O)N[C@@H](CO)C(=O)N[C@@H](CC(N)=O)C(=O)N[C@@H](CO)C(=O)N[C@@H](CS)C(=O)N[C@@H](Cc1ccccc1)C(=O)O (H-ALSASNSCF-OH; N-terminus and C-terminus assumed) | 0.3 | 728 nM | 0.2 | 16300 | IC50 (HLA-B07.02 [6]): 684 nM
5 | CC(C)[C@H](NC(=O)[C@H](CO)NC(=O)[C@@H](NC(=O)[C@@H](NC(=O)[C@H](C)NC(=O)[C@H](C)NC(=O)[C@H](CCCNC(=N)N)NC(=O)[C@@H](NC(=O)[C@@H]1CCCN1C(=O)[C@@H](N)CCCCN)[C@@H](C)O)[C@@H](C)O)C(C)C)C(=O)O (H-KPTRAATVSV-OH; N-terminus and C-terminus assumed) |  |  |  |  | IC50 (HLA-B07.02 [6]): 8 nM; Stability (T1/2 (h)) (HLA-B07.02 [2]): 3 h
6 | CSCC[C@H](NC(=O)[C@H](Cc1ccc(O)cc1)NC(=O)[C@@H](N)CCC(=O)O)C(=O)N[C@@H](C)C(=O)N[C@@H](CC(N)=O)C(=O)NCC(=O)N[C@@H](CO)C(=O)N[C@@H](CC(C)C)C(=O)N[C@@H](CC(C)C)C(=O)O (H-EYMANGSLL-OH; N-terminus and C-terminus assumed) |  |  |  | 5 | Stability (half-life (hr.)) (HLA-A24.02 [4]; BTK C481S peptide, HLA Allele A24.02): 5.716 h; IC50 (HLA-A24.02 [5]; BTK C481S peptide, HLA Allele A24.02, read-out: Affinity): 4.96 nM
7 | CC(C)C[C@H](NC(=O)[C@H](CC(C)C)NC(=O)[C@H](CC(C)C)NC(=O)[C@H](CC(=O)O)NC(=O)[C@H](CO)NC(=O)[C@H](CC(C)C)NC(=O)[C@@H]1CCCN1C(=O)[C@@H](NC(=O)[C@@H](N)C(C)C)C(C)C)C(=O)O (H-VVPLSDLLL-OH; N-terminus and C-terminus assumed) |  | 2550 nM | 0.5 | 8250 | 
8 | CSCC[C@H](NC(=O)[C@H](CCC(=O)O)NC(=O)[C@H](CC(C)C)NC(=O)[C@H](CC(C)C)NC(=O)[C@H](CC(C)C)NC(=O)CNC(=O)[C@H](Cc1ccc(O)cc1)NC(=O)[C@H](CC(C)C)NC(=O)[C@@H]1CCCN1)C(=O)N[C@@H](CC(C)C)C(=O)O (H-PLYGLLLEML-OH; N-terminus and C-terminus assumed) |  | 797 nM | 6.3 | 444 | 
9 | CC(C)C[C@H](NC(=O)[C@@H]1CCCN1C(=O)[C@@H]1CCCN1C(=O)[C@@H](NC(=O)[C@H](CO)NC(=O)[C@H](CC(C)C)NC(=O)[C@H](CC(C)C)NC(=O)[C@H](CCC(=O)O)NC(=O)[C@@H](N)Cc1ccccc1)[C@@H](C)O)C(=O)O (H-FELLSTPPL-OH; N-terminus and C-terminus assumed) |  |  |  |  | IC50 (HLA-B08.01): 3180 nM; IC50 (HLA-A02.01 [3]; Observed Affinity (IC50): 225 nM
10 | CC[C@H](C)[C@H](NC(=O)[C@@H](NC(=O)[C@H](CC(C)C)NC(=O)[C@@H](NC(=O)[C@@H]1CCCN1C(=O)[C@H](CCCNC(=N)N)NC(=O)[C@H](Cc1c[nH]c2ccccc12)NC(=O)[C@H](CC(N)=O)NC(=O)[C@@H](N)CCSC)[C@@H](C)CC)[C@@H](C)O)C(=O)O (H-MNWRPILTI-OH; N-terminus and C-terminus assumed) | 3.8 | 516 nM | 0.2 | 6980 | 
